The test system of this test is Lewis lung carcinoma i.m., BDF1 mice, T/C %. As to the kind of experiment: NCI In Vivo Anticancer Drug Screen. Data for tumor model Lewis Lung Carcinoma (intramuscular) in B6D2F1 (BDF1) mice. An outline of the steps: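 Compound given to mice with transplantable tumours; survival or tumour size compared against the vehicle control group, reported as T divided by C.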

Values joined by “and” are separate entries in the source; they are usually repeats but may differ in a detail not shown here. Equal values may be shown once. Records with an inconclusive call do not appear.

On to `OC(CBr)C(O)C(O)C(O)CBr` (configuration not stated), for which the T/C was 61 % of control (endpoint: mean tumor weight (est.), dose: 50.0 mg/kg/injection, schedule: Q01DX011 (ip), vehicle: Klucel (hydroxypropylcellulose) (HPC), higher = larger tumour); 59 % of control (endpoint: mean tumor weight (est.), dose: 100.0 mg/kg/injection, schedule: Q01DX011 (ip), vehicle: Klucel (hydroxypropylcellulose) (HPC), higher = larger tumour); 44 % of control (endpoint: mean tumor weight (est.), dose: 200.0 mg/kg/injection, schedule: Q01DX011 (ip), vehicle: Klucel (hydroxypropylcellulose) (HPC), higher = larger tumour); 85 % of control (endpoint: mean tumor weight, dose: 25.0 mg/kg/injection, schedule: Q01DX011 (ip), vehicle: Klucel (hydroxypropylcellulose) (HPC), higher = larger tumour); 70 % of control (endpoint: mean tumor weight, dose: 50.0 mg/kg/injection, schedule: Q01DX011 (ip), vehicle: Klucel (hydroxypropylcellulose) (HPC), higher = larger tumour); 93 % of control (endpoint: mean tumor weight, dose: 100.0 mg/kg/injection, schedule: Q01DX011 (ip), vehicle: Klucel (hydroxypropylcellulose) (HPC), higher = larger tumour). Moreover, the T/C by setting is: (endpoint: mean tumor weight, dose: 125.0 mg/kg/injection, schedule: Q01DX011 (ip), vehicle: Klucel (hydroxypropylcellulose) (HPC), higher = larger tumour) 101 % of control; (endpoint: mean tumor weight, dose: 200.0 mg/kg/injection, schedule: Q01DX011 (ip), vehicle: Klucel (hydroxypropylcellulose) (HPC), higher = larger tumour) 72 % of control; (endpoint: mean tumor weight, dose: 250.0 mg/kg/injection, schedule: Q01DX011 (ip), vehicle: Klucel (hydroxypropylcellulose) (HPC), higher = larger tumour) 100 % of control; (endpoint: mean tumor weight, dose: 400.0 mg/kg/injection, schedule: Q01DX011 (ip), vehicle: Klucel (hydroxypropylcellulose) (HPC), higher = larger tumour) 55 % of control; (endpoint: median survival time, dose: 25.0 mg/kg/injection, schedule: Q01DX011 (ip), vehicle: Klucel (hydroxypropylcellulose) (HPC), higher = longer survival) 94 % of control; (endpoint: median survival time, dose: 50.0 mg/kg/injection, schedule: Q01DX011 (ip), vehicle: Klucel (hydroxypropylcellulose) (HPC), higher = longer survival) 111 % of control. For the same molecule, the T/C is 93 % of control (endpoint: median survival time, dose: 125.0 mg/kg/injection, schedule: Q01DX011 (ip), vehicle: Klucel (hydroxypropylcellulose) (HPC), higher = longer survival); 97 % of control and 112 % of control (endpoint: median survival time, dose: 200.0 mg/kg/injection, schedule: Q01DX011 (ip), vehicle: Klucel (hydroxypropylcellulose) (HPC), higher = longer survival); 100 % of control (endpoint: median survival time, dose: 250.0 mg/kg/injection, schedule: Q01DX011 (ip), vehicle: Klucel (hydroxypropylcellulose) (HPC), higher = longer survival); 94 % of control (endpoint: median survival time, dose: 400.0 mg/kg/injection, schedule: Q01DX011 (ip), vehicle: Klucel (hydroxypropylcellulose) (HPC), higher = longer survival).

For the molecule `CCCCCCCCCCCCCCCCCC[N+](C)(C)C` (tested in a mixture with another compound), the T/C is 59 % of control (endpoint: mean tumor weight, dose: 1.0 mg/kg/injection, schedule: Q01DX011 (ip), vehicle: saline, higher = larger tumour); 64 % of control (endpoint: mean tumor weight, dose: 2.0 mg/kg/injection, schedule: Q01DX011 (ip), vehicle: saline, higher = larger tumour); 88 % of control (endpoint: median survival time, dose: 2.0 mg/kg/injection, schedule: Q01DX011 (ip), vehicle: saline, higher = longer survival).

In the case of `O=NN(CCCl)C(=O)NCc1ccc(-c2ccc(CNC(=O)N(CCCl)N=O)cc2)cc1`, the T/C runs as follows: (endpoint: median survival time, dose: 108.0 mg/kg/injection, schedule: Q07DX003 (ip), vehicle: Klucel (hydroxypropylcellulose) (HPC), higher = longer survival) 104 % of control; (endpoint: median survival time, dose: 180.0 mg/kg/injection, schedule: Q07DX003 (ip), vehicle: Klucel (hydroxypropylcellulose) (HPC), higher = longer survival) 93 % of control.

In the case of `CC(=O)Nc1cc(F)c([N+](=O)[O-])cc1[N+](=O)[O-]`, the T/C is, setting by setting: (endpoint: median survival time, dose: 1.25 mg/kg/injection, schedule: Q01DX011 (ip), vehicle: saline with Tween-80, higher = longer survival) 108 % of control; (endpoint: median survival time, dose: 2.5 mg/kg/injection, schedule: Q01DX011 (ip), vehicle: saline with Tween-80, higher = longer survival) 104 % of control; (endpoint: median survival time, dose: 5.0 mg/kg/injection, schedule: Q01DX011 (ip), vehicle: saline with Tween-80, higher = longer survival) 95 % of control; (endpoint: median survival time, dose: 10.0 mg/kg/injection, schedule: Q01DX011 (ip), vehicle: saline with Tween-80, higher = longer survival) 113 % of control.

As for `CC(=O)n1cc(F)c(=O)[nH]c1=O`, the T/C runs as follows: (endpoint: median survival time, dose: 6.0 mg/kg/injection, schedule: Q01DX011 (ip), vehicle: saline, higher = longer survival) 98 % of control; (endpoint: median survival time, dose: 12.0 mg/kg/injection, schedule: Q01DX011 (ip), vehicle: saline, higher = longer survival) 111 % of control; (endpoint: median survival time, dose: 24.0 mg/kg/injection, schedule: Q01DX011 (ip), vehicle: saline, higher = longer survival) 109 % of control.

With `Cc1nc(N)sc1CCCl`, the T/C was 86 % of control (endpoint: mean tumor weight (est.), dose: 10.0 mg/kg/injection, schedule: Q01DX011 (ip), vehicle: saline, higher = larger tumour); 105 % of control (endpoint: mean tumor weight (est.), dose: 20.0 mg/kg/injection, schedule: Q01DX011 (ip), vehicle: saline, higher = larger tumour); 91 % of control (endpoint: mean tumor weight (est.), dose: 40.0 mg/kg/injection, schedule: Q01DX011 (ip), vehicle: saline, higher = larger tumour); 98 % of control (endpoint: median survival time, dose: 10.0 mg/kg/injection, schedule: Q01DX011 (ip), vehicle: saline, higher = longer survival); 104 % of control (endpoint: median survival time, dose: 20.0 mg/kg/injection, schedule: Q01DX011 (ip), vehicle: saline, higher = longer survival); 104 % of control (endpoint: median survival time, dose: 40.0 mg/kg/injection, schedule: Q01DX011 (ip), vehicle: saline, higher = longer survival).

On to `COc1ccc(OC)c(/C=C/c2ccnc3ccccc23)c1`, for which the T/C was 84 % of control (endpoint: mean tumor weight (est.), dose: 50.0 mg/kg/injection, schedule: Q01DX011 (ip), vehicle: saline with Tween-80, higher = larger tumour); 75 % of control (endpoint: mean tumor weight (est.), dose: 100.0 mg/kg/injection, schedule: Q01DX011 (ip), vehicle: saline with Tween-80, higher = larger tumour); 77 % of control (endpoint: mean tumor weight (est.), dose: 400.0 mg/kg/injection, schedule: Q01DX011 (ip), vehicle: saline with Tween-80, higher = larger tumour); 100 % of control (endpoint: median survival time, dose: 50.0 mg/kg/injection, schedule: Q01DX011 (ip), vehicle: saline with Tween-80, higher = longer survival); 102 % of control (endpoint: median survival time, dose: 100.0 mg/kg/injection, schedule: Q01DX011 (ip), vehicle: saline with Tween-80, higher = longer survival).

With `Cc1cc2c3ccc(C)[n+](C)c3ccc2n1C`, the T/C is 81 % of control (endpoint: mean tumor weight (est.), dose: 0.6 mg/kg/injection, schedule: Q01DX011 (ip), vehicle: saline, higher = larger tumour); 59 % of control (endpoint: mean tumor weight (est.), dose: 1.25 mg/kg/injection, schedule: Q01DX011 (ip), vehicle: saline, higher = larger tumour); 110 % of control (endpoint: mean tumor weight (est.), dose: 2.5 mg/kg/injection, schedule: Q01DX011 (ip), vehicle: saline, higher = larger tumour).

With `NC(Cc1ccc(N(CCCl)CCCl)cc1)C(=O)O` (configuration not stated), the T/C by setting is: (endpoint: mean tumor weight, dose: 1.0 mg/kg/injection, schedule: Q01DX011 (ip), vehicle: Klucel (hydroxypropylcellulose) (HPC), higher = larger tumour) 76 % of control; (endpoint: mean tumor weight, dose: 2.0 mg/kg/injection, schedule: Q01DX011 (ip), vehicle: Klucel (hydroxypropylcellulose) (HPC), higher = larger tumour) 99 % of control; (endpoint: mean tumor weight, dose: 4.0 mg/kg/injection, schedule: Q01DX011 (ip), vehicle: Klucel (hydroxypropylcellulose) (HPC), higher = larger tumour) 52 % of control; (endpoint: median survival time, dose: 1.0 mg/kg/injection, schedule: Q01DX011 (ip), vehicle: Klucel (hydroxypropylcellulose) (HPC), higher = longer survival) 110 % of control; (endpoint: median survival time, dose: 2.0 mg/kg/injection, schedule: Q01DX011 (ip), vehicle: Klucel (hydroxypropylcellulose) (HPC), higher = longer survival) 102 % of control.

Regarding `CCCSc1ncnc2nc[nH]c12`, the T/C (endpoint: mean tumor weight, dose: 25.0 mg/kg/injection, schedule: Q01DX011 (ip), vehicle: other, higher = larger tumour) was 80 % of control and the T/C (endpoint: median survival time, dose: 25.0 mg/kg/injection, schedule: Q01DX011 (ip), vehicle: other, higher = longer survival) was 102 % of control.

Turning to `COc1ccc2nc3cc(Cl)ccc3c(NCCO)c2c1`, the T/C was 19 % of control (endpoint: mean tumor weight (est.), dose: 34.37 mg/kg/injection, schedule: Q01DX011 (ip), vehicle: saline with Tween-80, higher = larger tumour); 55 % of control (endpoint: mean tumor weight (est.), dose: 68.75 mg/kg/injection, schedule: Q01DX011 (ip), vehicle: saline with Tween-80, higher = larger tumour); 91 % of control (endpoint: median survival time, dose: 34.36 mg/kg/injection, schedule: Q01DX011 (ip), vehicle: saline with Tween-80, higher = longer survival); 96 % of control (endpoint: median survival time, dose: 68.75 mg/kg/injection, schedule: Q01DX011 (ip), vehicle: saline with Tween-80, higher = longer survival).

With `CSc1ncnc2c1ncn2C1OC(CO)C(O)C1O` (configuration not stated), the T/C (endpoint: mean tumor weight, dose: 3.75 mg/kg/injection, schedule: Q01DX011 (ip), vehicle: saline, higher = larger tumour) is 86 % of control; the T/C (endpoint: mean tumor weight, dose: 7.5 mg/kg/injection, schedule: Q01DX011 (ip), vehicle: saline, higher = larger tumour) was 63 % of control; the T/C (endpoint: median survival time, dose: 3.75 mg/kg/injection, schedule: Q01DX011 (ip), vehicle: saline, higher = longer survival) was 100 % of control; the T/C (endpoint: median survival time, dose: 7.5 mg/kg/injection, schedule: Q01DX011 (ip), vehicle: saline, higher = longer survival) is 90 % of control.

As for `Cc1n(Cc2ccccc2)c2c([n+]1C)C(=O)c1ccccc1C2=O`, the T/C reads like this: (endpoint: mean tumor weight (est.), dose: 0.13 mg/kg/injection, schedule: Q01DX011 (ip), vehicle: saline with Tween-80, higher = larger tumour) 48 % of control; (endpoint: mean tumor weight (est.), dose: 0.25 mg/kg/injection, schedule: Q01DX011 (ip), vehicle: saline with Tween-80, higher = larger tumour) 50 % of control; (endpoint: mean tumor weight (est.), dose: 0.5 mg/kg/injection, schedule: Q01DX011 (ip), vehicle: saline with Tween-80, higher = larger tumour) 31 % of control; (endpoint: mean tumor weight (est.), dose: 1.0 mg/kg/injection, schedule: Q01DX011 (ip), vehicle: saline with Tween-80, higher = larger tumour) 36 % of control; (endpoint: mean tumor weight (est.), dose: 2.0 mg/kg/injection, schedule: Q01DX011 (ip), vehicle: saline with Tween-80, higher = larger tumour) 43 % of control; (endpoint: median survival time, dose: 0.13 mg/kg/injection, schedule: Q01DX011 (ip), vehicle: saline with Tween-80, higher = longer survival) 110 % of control. The T/C (endpoint: median survival time, dose: 0.25 mg/kg/injection, schedule: Q01DX011 (ip), vehicle: saline with Tween-80, higher = longer survival) was 100 % of control; the T/C (endpoint: median survival time, dose: 0.5 mg/kg/injection, schedule: Q01DX011 (ip), vehicle: saline with Tween-80, higher = longer survival) was 106 % of control; the T/C (endpoint: median survival time, dose: 1.0 mg/kg/injection, schedule: Q01DX011 (ip), vehicle: saline with Tween-80, higher = longer survival) is 89 % of control; the T/C (endpoint: median survival time, dose: 2.0 mg/kg/injection, schedule: Q01DX011 (ip), vehicle: saline with Tween-80, higher = longer survival) is 89 % of control.

For the origin of these results see PubChem BioAssay AID272 (DTP/NCI, 2004).
